Measurements from patent US12371454B2, “Cyclic peptide compound having Kras inhibitory action” (priority 2019, dated 2025).
Starred links: 1 amine or outer side, 2 acyl side, 3 side chain; linkers in the order of their positions; H or OH if unused. Positions of bridges follow the written chain, without caps; N, C: chain ends. Non-standard residues stand in square brackets, D forms with d. Residues, ends and D or L forms follow the SMILES beside them. *: point of attachment. hPhe(3,5-F2-4-CF3) = N[C@@H](CCc1cc(F)c(C(F)(F)F)c(F)c1)C(=O)O; hPhe(3-Cl-4-CF3) = N[C@@H](CCc1ccc(C(F)(F)F)c(Cl)c1)C(=O)O; hPhe(3-F,4-CF3) = N[C@@H](CCc1ccc(C(F)(F)F)c(F)c1)C(=O)O; NMePhe(4-CF3) = CN[C@@H](Cc1ccc(C(F)(F)F)cc1)C(=O)O; NEtPhe(4-Me) = CCN[C@@H](Cc1ccc(C)cc1)C(=O)O; NMeAbu(4,4,4-F3) = CN[C@@H](CC(F)(F)F)C(=O)O; NMePhe(4-Me) = CN[C@@H](Cc1ccc(C)cc1)C(=O)O; NMedβ3hAla = C[C@H](CC(=O)[*:2])N(C)[*:1]; NMeGly(cPent) = CN[C@H](C(=O)O)C1CCCC1; Phe(3-I) = N[C@@H](Cc1cccc(I)c1)C(=O)O; Gly(cPent) = N[C@H](C(=O)O)C1CCCC1; NMeCha = CN[C@@H](CC1CCCCC1)C(=O)O; Hyp = O=C(O)[C@@H]1C[C@@H](O)CN1; NMeChg = CN[C@H](C(=O)O)C1CCCCC1; NMeT = CN[C@H](C(=O)O)[C@@H](C)O; NMeD = CN[C@@H](CC(=O)O)C(=O)O; NMeL = CN[C@@H](CC(C)C)C(=O)O; NMeV = CN[C@H](C(=O)O)C(C)C; d(β3hA) = C[C@@H](N)CC(=O)O; NMeA = CN[C@@H](C)C(=O)O; Nle = CCCC[C@H](N)C(=O)O; Piperidide = C1CCN(*)CC1; Pyrrolidide = C1CCN(*)C1; Ac5c = NC1(C(=O)O)CCCC1; Aze = O=C(O)[C@@H]1CCN1; Aib = CC(C)(N)C(=O)O; Sar = CNCC(=O)O

Molecular target: T1, Kras and SOS1 (biotin-tagged human Kras loaded with GDP, His-tagged human SOS1) (Homo sapiens, UniProt P01116, G12D)
T1 construct: made in house; host or cells: E. coli (stated for Kras only)
Test: Protein-protein interaction inhibition between Kras and SOS1 (KrasGl2D-SOS PPI) using AlphaScreen
Assay type: binding
Conditions: AlphaScreen; biotin-tagged human Kras loaded with GDP, His-tagged human SOS1; read-out: KRAS G12D-SOS PPI IC50
Experimental: Protein-Protein Interaction Inhibition Between Kras and SOS1 (KrasGl2D-SOS PPI) Using AlphaScreen
Protein-protein interaction inhibition (PPI) between Kras and SOS1 was measured by energy transfer from nickel-conjugated donor beads to streptavidin-conjugated acceptor beads using biotin-tagged human Kras expressed in E. coli and loaded with GDP after purification and His-tagged human SOS1 enzyme. This measurement utilizes the phenomenon in which donor beads are irradiated with light at 680 nm, such that energy is transferred to acceptor beads through singlet oxygen and light at 520-620 nm is detected from the acceptor beads.
Inhibition of binding between K-ras and SOS1 is known to inhibit signaling downstream of Kras.

T1 sequence (P01116 1-188 isoform P01116-2 G12D): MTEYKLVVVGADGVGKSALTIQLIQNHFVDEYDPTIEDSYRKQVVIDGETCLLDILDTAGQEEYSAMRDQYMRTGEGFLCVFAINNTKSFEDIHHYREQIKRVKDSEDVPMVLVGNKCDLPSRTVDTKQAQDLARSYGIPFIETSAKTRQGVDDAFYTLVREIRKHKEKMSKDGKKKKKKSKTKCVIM

First: CC[C@H](C)[C@@H]1NC(=O)[C@H](CC(C)C)N(C)C(=O)C[C@@H](C(=O)N2CCCCC2)N(C)C(=O)[C@H]([C@@H](C)O)N(C)C(=O)C2(CCCC2)NC(=O)[C@@H]2CCCN2C(=O)[C@H](CCc2ccc(C(F)(F)F)c(Cl)c2)NC(=O)CN(C)C(=O)[C@H](CC2CCCCC2)N(C)C(=O)CN(C)C(=O)CN(C)C1=O [Compound 1041] ([NMeL]I[Sar][Sar][NMeCha][Sar][hPhe(3-Cl-4-CF3)]P[Ac5c][NMeT][NMeD]-Piperidide; lactam N-11)
Second: CC[C@H](C)[C@@H]1NC(=O)[C@H](CC(C)C)N(C)C(=O)C[C@@H](C(=O)N2CCCCC2)N(C)C(=O)[C@H](C(C)C)N(C)C(=O)C(C)(C)NC(=O)[C@@H]2CCCN2C(=O)[C@H](CCc2ccc(C(F)(F)F)c(F)c2)NC(=O)CN(C)C(=O)[C@H](CC2CCCCC2)N(C)C(=O)CN(C)C(=O)CN(C)C1=O [Compound 522] ([NMeL]I[Sar][Sar][NMeCha][Sar][hPhe(3-F,4-CF3)]P[Aib][NMeV][NMeD]-Piperidide; lactam N-11)
The IC50 of the first is 3.3-fold lower: 1.6 nM for the first, 5.3 nM for the second.

Going from `CCO[C@@H]1C[C@H]2C(=O)NC3(CCCC3)C(=O)N(C)[C@@H](C3CCCC3)C(=O)N(C)[C@H](C)CC(=O)N(C)[C@@H](CC(C)C)C(=O)N[C@@H]([C@@H](C)CC)C(=O)N[C@@H](C)C(=O)N3CC[C@H]3C(=O)N(CC)[C@@H](Cc3ccc(C)cc3)C(=O)N(C)CC(=O)N[C@@H](CCc3ccc(C(F)(F)F)c(Cl)c3)C(=O)N2C1` [Compound 525] (cyclo(A[Aze][NEtPhe(4-Me)][Sar][hPhe(3-Cl-4-CF3)][Hyp](Et)[Ac5c][NMeGly(cPent)][NMedβ3hAla][NMeL]I)) to `CC(C)C[C@H]1C(=O)N[C@@H](C2CCCC2)C(=O)N(C)CC(=O)N(C)CC(=O)N(C)[C@@H](CC2CCCCC2)C(=O)N(C)CC(=O)N[C@@H](CCc2ccc(C(F)(F)F)c(Cl)c2)C(=O)N2CCC[C@H]2C(=O)NC2(CCCC2)C(=O)N(C)[C@@H](C(C)C)C(=O)N[C@H](C)CC(=O)N1C` [Compound 333] (cyclo([Ac5c][NMeV][d(β3hA)][NMeL][Gly(cPent)][Sar][Sar][NMeCha][Sar][hPhe(3-Cl-4-CF3)]P)), the IC50 rises from 2.3 nM to 110 nM (48-fold).

Going from `CCCC[C@@H]1NC(=O)[C@H](Cc2cccc(I)c2)NC(=O)CN(C)C(=O)[C@H](Cc2ccc(C)cc2)N(C)C(=O)CN(C)C(=O)CN(C)C(=O)[C@H]([C@@H](C)CC)NC(=O)[C@H](CC(C)C)N(C)C(=O)C[C@@H](C(=O)N2CCCCC2)N(C)C(=O)[C@H](CC(C)C)NC(=O)[C@H](C)N(C)C1=O` [Compound 232] ([NMeL]I[Sar][Sar][NMePhe(4-Me)][Sar][Phe(3-I)][Nle][NMeA]L[NMeD]-Piperidide; lactam N-11) to `CC[C@H](C)[C@@H]1NC(=O)[C@H](CC(C)C)N(C)C(=O)C[C@@H](C(=O)N2CCCCC2)N(C)C(=O)[C@H](C2CCCCC2)N(C)C(=O)[C@H](C)NC(=O)[C@@H]2CCCN2C(=O)[C@H](CCc2ccc(C(F)(F)F)c(Cl)c2)NC(=O)CN(C)C(=O)[C@H](CC2CCCCC2)N(C)C(=O)CN(C)C(=O)CN(C)C1=O` [Compound 591] ([NMeL]I[Sar][Sar][NMeCha][Sar][hPhe(3-Cl-4-CF3)]PA[NMeChg][NMeD]-Piperidide; lactam N-11), the IC50 falls from 20 nM to 2.1 nM (9.5-fold).

Work on `CC[C@H](C)[C@@H]1NC(=O)[C@H](CC(F)(F)F)N(C)C(=O)C[C@@H](C(=O)N2CCCC2)N(C)C(=O)[C@H](C2CCCCC2)N(C)C(=O)C2(CCCC2)NC(=O)[C@@H]2CCCN2C(=O)[C@H](CCc2cc(F)c(C(F)(F)F)c(F)c2)NC(=O)CN(C)C(=O)[C@H](Cc2ccc(C(F)(F)F)cc2)N(C)C(=O)CN(C)C(=O)CN(C)C1=O` [Compound 1244] ([NMeAbu(4,4,4-F3)]I[Sar][Sar][NMePhe(4-CF3)][Sar][hPhe(3,5-F2-4-CF3)]P[Ac5c][NMeChg][NMeD]-Pyrrolidide; lactam N-11) yielded an IC50 of 0.63 nM.
